ChEMBL document CHEMBL5291721, “A preclinical secondary pharmacology resource illuminates target-adverse drug reaction associations of marketed drugs” (Nat Commun, 2023)

Columns and labels:
Adenosine receptor A2a = Adenosine receptor A2a (Homo sapiens, UniProt P29274)
[1] = molecular target: T1, Alpha-2A adrenergic receptor (Homo sapiens, UniProt P08913); type: functional, cell-based
T1 sequence (P08913 whole entry): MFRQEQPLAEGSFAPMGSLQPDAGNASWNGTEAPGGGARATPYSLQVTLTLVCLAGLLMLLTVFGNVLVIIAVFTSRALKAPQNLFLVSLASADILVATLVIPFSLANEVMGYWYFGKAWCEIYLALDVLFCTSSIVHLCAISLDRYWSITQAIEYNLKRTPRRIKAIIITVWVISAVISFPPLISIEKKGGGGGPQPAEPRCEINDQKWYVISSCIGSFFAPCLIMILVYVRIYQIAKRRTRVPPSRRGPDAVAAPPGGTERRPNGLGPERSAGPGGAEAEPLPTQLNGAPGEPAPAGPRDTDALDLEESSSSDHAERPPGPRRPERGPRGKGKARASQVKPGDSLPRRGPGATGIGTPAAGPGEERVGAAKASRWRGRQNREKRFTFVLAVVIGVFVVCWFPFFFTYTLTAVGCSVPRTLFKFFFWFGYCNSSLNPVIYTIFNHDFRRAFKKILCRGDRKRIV

[2] = molecular target: Beta-2 adrenergic receptor (Homo sapiens, UniProt P07550)
B2 bradykinin receptor = molecular target: T2, B2 bradykinin receptor (Homo sapiens, UniProt P30411)
T2 sequence (P30411 whole entry): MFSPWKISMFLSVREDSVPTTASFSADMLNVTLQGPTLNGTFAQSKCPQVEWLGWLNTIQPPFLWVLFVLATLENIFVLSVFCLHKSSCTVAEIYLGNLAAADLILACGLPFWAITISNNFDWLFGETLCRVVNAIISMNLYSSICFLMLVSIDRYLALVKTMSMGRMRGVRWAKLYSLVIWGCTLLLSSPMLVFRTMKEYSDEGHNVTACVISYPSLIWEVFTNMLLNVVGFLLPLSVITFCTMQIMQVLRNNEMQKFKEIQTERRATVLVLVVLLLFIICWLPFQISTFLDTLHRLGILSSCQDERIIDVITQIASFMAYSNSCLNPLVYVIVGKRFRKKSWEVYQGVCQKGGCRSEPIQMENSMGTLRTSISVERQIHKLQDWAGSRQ

Estrogen receptor = molecular target: T3, Estrogen receptor (Homo sapiens, UniProt P03372)
T3 sequence (P03372 whole entry): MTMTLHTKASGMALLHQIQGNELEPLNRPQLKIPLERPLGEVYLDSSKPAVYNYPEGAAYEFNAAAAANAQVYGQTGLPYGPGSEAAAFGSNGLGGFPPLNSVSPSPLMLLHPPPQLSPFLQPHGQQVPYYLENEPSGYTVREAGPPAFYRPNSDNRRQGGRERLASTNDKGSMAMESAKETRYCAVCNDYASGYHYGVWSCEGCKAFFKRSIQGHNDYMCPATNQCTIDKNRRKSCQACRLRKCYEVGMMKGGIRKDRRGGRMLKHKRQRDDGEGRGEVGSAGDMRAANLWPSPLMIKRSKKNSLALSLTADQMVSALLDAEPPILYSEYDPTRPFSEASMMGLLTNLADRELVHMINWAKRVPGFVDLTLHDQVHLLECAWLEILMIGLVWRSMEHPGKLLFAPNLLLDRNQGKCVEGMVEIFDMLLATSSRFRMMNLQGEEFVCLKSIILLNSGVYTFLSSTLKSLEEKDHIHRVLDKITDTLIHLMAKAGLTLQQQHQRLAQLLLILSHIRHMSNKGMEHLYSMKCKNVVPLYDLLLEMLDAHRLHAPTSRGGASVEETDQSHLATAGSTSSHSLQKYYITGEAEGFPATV

Histamine H2 receptor = Histamine H2 receptor (Homo sapiens, UniProt P25021); type: functional, cell-based
Sequence of Histamine H2 receptor (P25021 whole entry): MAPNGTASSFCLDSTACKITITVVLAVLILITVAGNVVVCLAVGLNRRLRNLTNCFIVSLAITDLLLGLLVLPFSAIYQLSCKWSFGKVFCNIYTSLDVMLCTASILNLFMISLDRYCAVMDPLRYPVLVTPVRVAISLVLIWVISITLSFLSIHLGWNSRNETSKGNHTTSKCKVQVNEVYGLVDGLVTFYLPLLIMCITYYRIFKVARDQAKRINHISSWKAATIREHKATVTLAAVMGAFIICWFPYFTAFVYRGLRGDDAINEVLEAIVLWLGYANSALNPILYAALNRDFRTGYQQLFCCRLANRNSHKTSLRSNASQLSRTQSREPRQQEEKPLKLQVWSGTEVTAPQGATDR

[3] = molecular target: T4, 5-hydroxytryptamine receptor 2C (Homo sapiens, UniProt P28335)
T4 sequence (P28335 whole entry): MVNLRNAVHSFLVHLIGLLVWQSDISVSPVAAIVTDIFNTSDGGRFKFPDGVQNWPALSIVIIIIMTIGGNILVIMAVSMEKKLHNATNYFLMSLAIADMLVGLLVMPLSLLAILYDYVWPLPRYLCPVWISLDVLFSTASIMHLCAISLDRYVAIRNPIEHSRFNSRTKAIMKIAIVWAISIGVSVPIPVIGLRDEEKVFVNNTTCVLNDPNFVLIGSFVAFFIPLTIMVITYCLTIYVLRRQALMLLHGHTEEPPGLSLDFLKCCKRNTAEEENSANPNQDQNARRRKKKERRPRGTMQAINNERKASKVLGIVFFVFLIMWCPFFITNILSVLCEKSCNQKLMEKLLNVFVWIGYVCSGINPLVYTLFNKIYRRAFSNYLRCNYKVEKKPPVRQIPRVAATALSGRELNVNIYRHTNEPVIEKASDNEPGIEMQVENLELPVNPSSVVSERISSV

Motilin receptor = Motilin receptor (Homo sapiens, UniProt O43193)
Sequence of Motilin receptor (O43193 whole entry): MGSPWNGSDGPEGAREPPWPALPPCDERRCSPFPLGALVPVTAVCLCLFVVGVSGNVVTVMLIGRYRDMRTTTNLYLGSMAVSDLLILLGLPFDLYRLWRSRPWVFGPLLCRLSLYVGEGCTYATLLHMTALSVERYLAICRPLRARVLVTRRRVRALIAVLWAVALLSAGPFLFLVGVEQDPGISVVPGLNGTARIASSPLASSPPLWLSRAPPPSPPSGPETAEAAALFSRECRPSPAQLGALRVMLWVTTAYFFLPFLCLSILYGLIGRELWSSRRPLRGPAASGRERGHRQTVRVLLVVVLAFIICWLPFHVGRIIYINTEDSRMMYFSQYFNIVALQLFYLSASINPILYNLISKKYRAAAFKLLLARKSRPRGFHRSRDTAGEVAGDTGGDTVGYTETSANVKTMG

[4] = molecular target: Sodium-dependent dopamine transporter (Homo sapiens, UniProt Q01959)
Sequence of Sodium-dependent dopamine transporter (Q01959 whole entry): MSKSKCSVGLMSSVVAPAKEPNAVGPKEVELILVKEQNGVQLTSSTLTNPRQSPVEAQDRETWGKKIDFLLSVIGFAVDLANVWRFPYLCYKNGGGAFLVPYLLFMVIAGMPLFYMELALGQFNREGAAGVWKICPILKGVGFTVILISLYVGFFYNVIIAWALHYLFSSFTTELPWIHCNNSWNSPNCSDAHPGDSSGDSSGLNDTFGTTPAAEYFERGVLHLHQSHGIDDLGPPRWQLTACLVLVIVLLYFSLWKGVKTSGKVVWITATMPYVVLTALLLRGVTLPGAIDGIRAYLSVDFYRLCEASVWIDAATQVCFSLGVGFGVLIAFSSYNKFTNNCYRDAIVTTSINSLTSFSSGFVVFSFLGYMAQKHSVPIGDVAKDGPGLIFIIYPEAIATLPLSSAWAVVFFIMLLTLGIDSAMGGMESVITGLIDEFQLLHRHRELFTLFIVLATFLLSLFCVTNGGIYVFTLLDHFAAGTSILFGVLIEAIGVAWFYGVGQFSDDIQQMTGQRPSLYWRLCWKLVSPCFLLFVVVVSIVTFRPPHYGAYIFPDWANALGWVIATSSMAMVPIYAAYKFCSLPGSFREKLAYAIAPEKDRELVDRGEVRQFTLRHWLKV

[5] = molecular target: Sodium-dependent noradrenaline transporter (Homo sapiens, UniProt P23975)
Sequence of Sodium-dependent noradrenaline transporter (P23975 whole entry): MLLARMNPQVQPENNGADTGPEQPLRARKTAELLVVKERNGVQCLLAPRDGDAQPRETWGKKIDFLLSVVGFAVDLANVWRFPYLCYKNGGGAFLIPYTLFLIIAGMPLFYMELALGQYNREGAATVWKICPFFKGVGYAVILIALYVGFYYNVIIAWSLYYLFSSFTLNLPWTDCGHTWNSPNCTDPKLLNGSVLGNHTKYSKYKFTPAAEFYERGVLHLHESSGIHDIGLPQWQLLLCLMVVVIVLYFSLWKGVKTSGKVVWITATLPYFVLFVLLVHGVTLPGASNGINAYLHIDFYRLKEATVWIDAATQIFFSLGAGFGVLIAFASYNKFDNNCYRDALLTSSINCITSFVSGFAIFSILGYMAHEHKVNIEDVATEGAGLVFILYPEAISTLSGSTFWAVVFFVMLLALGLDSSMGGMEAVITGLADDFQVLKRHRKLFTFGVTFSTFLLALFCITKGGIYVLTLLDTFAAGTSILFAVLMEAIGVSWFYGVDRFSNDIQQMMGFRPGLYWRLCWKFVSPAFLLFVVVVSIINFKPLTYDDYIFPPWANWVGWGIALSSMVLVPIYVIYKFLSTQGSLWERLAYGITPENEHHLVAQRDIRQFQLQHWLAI

[6] = molecular target: T5, Amine oxidase [flavin-containing] A (Homo sapiens, UniProt P21397); type: functional
T5 sequence (P21397 whole entry): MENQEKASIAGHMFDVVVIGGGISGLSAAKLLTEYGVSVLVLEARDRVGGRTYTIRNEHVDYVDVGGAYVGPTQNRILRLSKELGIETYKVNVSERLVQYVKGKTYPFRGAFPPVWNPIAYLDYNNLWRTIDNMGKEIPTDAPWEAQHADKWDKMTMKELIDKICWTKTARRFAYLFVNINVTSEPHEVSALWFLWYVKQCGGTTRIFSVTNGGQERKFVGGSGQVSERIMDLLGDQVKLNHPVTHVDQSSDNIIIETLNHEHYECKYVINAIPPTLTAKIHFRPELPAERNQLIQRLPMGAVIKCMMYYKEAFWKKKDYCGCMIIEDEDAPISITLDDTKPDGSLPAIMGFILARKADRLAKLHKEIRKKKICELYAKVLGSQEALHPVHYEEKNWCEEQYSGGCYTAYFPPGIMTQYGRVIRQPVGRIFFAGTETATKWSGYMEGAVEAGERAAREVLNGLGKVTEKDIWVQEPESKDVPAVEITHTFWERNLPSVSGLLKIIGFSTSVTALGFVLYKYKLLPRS

[7] = molecular target: cGMP-inhibited 3',5'-cyclic phosphodiesterase 3A (Homo sapiens, UniProt Q14432); type: functional
Sequence of cGMP-inhibited 3',5'-cyclic phosphodiesterase 3A (Q14432 whole entry): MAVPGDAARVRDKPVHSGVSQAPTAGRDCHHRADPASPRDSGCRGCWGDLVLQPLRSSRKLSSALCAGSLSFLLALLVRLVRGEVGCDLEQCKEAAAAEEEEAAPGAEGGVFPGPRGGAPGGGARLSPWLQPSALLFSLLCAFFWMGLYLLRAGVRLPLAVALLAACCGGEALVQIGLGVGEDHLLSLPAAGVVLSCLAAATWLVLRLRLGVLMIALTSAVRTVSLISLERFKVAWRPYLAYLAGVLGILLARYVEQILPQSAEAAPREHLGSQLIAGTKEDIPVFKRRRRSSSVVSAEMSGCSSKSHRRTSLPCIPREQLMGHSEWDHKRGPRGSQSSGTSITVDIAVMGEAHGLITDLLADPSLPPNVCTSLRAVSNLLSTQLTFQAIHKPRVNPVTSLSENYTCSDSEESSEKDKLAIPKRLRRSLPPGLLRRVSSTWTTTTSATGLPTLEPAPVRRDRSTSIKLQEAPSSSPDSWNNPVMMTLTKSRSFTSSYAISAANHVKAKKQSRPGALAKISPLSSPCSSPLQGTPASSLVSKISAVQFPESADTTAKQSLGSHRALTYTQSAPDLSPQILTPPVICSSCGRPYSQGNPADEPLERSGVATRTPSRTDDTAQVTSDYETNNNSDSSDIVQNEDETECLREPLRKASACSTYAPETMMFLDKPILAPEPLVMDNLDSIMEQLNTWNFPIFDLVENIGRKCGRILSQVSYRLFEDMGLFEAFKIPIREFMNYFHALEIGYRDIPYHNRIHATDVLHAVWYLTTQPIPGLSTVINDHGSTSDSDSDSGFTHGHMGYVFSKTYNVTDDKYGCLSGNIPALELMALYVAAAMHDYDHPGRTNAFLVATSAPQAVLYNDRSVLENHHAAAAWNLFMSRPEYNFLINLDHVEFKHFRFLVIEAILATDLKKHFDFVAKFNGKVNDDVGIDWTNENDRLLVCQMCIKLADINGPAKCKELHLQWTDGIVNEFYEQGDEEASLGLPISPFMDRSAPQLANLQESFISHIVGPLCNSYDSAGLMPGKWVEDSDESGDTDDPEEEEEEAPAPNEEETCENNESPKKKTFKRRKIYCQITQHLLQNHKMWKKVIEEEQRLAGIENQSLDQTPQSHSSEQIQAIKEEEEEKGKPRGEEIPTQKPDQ
Further: assay procedure not described here.

Sequence of Adenosine receptor A2a (P29274 whole entry): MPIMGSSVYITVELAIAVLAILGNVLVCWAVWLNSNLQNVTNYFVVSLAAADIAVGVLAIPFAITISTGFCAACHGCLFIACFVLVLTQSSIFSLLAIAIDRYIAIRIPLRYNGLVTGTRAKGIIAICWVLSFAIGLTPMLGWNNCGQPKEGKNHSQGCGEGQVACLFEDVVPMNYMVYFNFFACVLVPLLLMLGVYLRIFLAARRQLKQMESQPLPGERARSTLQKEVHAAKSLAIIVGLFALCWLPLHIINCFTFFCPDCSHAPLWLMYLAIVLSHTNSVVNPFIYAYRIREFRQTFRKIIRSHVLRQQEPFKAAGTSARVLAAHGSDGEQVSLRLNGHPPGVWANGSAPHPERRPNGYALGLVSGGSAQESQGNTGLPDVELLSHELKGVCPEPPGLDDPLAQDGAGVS

Compound	AC50 (Adenosine receptor A2a)	AC50 [1]	AC50 [2]	AC50 (B2 bradykinin receptor)	AC50 (Estrogen receptor)	AC50 (Histamine H2 receptor)	AC50 [3]	AC50 (Motilin receptor)	AC50 [4]	AC50 [5]	AC50 [6]	AC50 [7]
C1COC(NC(C2CC2)C2CC2)=N1 [RILMENIDINE]	> 30 µM	2.6 µM	> 10 µM	> 30 µM	> 30 µM	> 10 µM	> 30 µM	> 10 µM	> 30 µM	> 30 µM	> 10 µM	> 30 µM
CN[C@@H]1[C@H](O)[C@H](NC)[C@H]2O[C@@]3(O)C(=O)C[C@@H](C)O[C@H]3O[C@@H]2[C@H]1O [SPECTINOMYCIN]	> 10 µM	> 10 µM	> 10 µM	> 10 µM	> 10 µM	> 10 µM	> 30 µM	> 10 µM	> 10 µM	> 10 µM	> 10 µM	> 30 µM
CC(=O)NS(=O)(=O)c1ccc(N)cc1 [SULFACETAMIDE]	> 10 µM	> 10 µM	> 10 µM	> 10 µM	> 10 µM	> 10 µM	> 30 µM	> 10 µM	> 10 µM	> 10 µM	> 10 µM	> 30 µM
COc1ccc(C(=O)N2CCN(c3ccc4c(c3)CCC(=O)N4)CC2)cc1OC [VESNARINONE]	> 30 µM	> 30 µM	> 30 µM	> 30 µM	> 30 µM	> 30 µM	> 30 µM	> 30 µM	> 30 µM	> 30 µM	> 30 µM	8.46 µM
CC[C@]1(O)C[C@@H]2CN(CCc3c([nH]c4ccccc34)[C@@](C(=O)OC)(c3cc4c(cc3OC)N(C)[C@H]3[C@@](O)(C(N)=O)[C@H](O)[C@]5(CC)C=CCN6CC[C@]43[C@@H]65)C2)C1 [VINDESINE]	> 30 µM	> 30 µM	> 30 µM	> 30 µM	> 30 µM	> 30 µM	> 30 µM	4.8 µM	> 30 µM	> 30 µM	> 30 µM	> 30 µM
Cc1ccc(-c2nc3ccc(C)cn3c2CC(=O)N(C)C)cc1 [ZOLPIDEM]	> 30 µM	> 30 µM	> 30 µM	> 30 µM	> 30 µM	> 10 µM	> 30 µM	> 30 µM	> 30 µM	> 30 µM	> 30 µM	> 30 µM
TOCOFERSOLAN	> 30 µM	> 30 µM	> 30 µM	> 30 µM	> 30 µM	> 30 µM	> 30 µM	> 30 µM	> 30 µM	> 30 µM	> 30 µM	> 10 µM
